Where two headings read alike, the source gives them in different places.

What all share (test): Inhibition assay, microfluidic LabChip (Nanosyn)
Format in all cases: biochemical

Test [1] deals with CDK1/B (Homo sapiens, UniProt P06493). The conditions noted are these: Table 3a. On the procedure:
(§1) The reaction was terminated by the addition of EDTA. The plates were analyzed using a Caliper LabChip 3000.
(§2) Additional inhibition assays were performed as described above.

Test [2] addresses T1, CDK9-CYCLINT1 (Homo sapiens, UniProt P50750).
T1 construct: purchased Carna
On the procedure:
as §1, §2

Test [3] concerns the target T2, CDK4-CYCLIND1 (Homo sapiens, UniProt P11802).
T2 construct: purchased Invitrogen
As to conditions: read-out: CDK4 CyclinD1 IC50. On the procedure: as §1, §2

The target in test [4] is T3, CDK2-CYCLINA (Homo sapiens, UniProt P24941).
T3 construct: purchased Millipore
On the procedure: as §1, §2

The target in test [5] is CDK7 CyclinH (Homo sapiens, UniProt P50613). On the procedure: as §1, §2
CDK7 CyclinH, sequence (P50613 whole entry): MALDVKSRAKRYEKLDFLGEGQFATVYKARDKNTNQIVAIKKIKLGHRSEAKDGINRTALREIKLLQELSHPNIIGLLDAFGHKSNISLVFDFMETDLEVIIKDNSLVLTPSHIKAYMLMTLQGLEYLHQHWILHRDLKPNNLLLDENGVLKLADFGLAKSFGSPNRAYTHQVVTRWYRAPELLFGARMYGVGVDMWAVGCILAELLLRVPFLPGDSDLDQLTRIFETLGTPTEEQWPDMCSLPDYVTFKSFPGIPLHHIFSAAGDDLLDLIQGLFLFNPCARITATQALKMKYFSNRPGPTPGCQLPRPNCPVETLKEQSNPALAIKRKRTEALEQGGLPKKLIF
CDK7 CyclinH, sequence (P51946 whole entry partner): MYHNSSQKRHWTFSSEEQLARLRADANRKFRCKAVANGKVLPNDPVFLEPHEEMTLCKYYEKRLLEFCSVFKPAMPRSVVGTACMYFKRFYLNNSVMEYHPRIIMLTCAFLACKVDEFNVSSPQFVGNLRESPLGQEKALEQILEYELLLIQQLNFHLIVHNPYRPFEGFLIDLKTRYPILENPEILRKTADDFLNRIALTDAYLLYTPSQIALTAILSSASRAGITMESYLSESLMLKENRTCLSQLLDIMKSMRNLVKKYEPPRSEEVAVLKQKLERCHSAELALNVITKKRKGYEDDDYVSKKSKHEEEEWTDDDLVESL
CDK7 CyclinH, sequence (P51948 whole entry partner): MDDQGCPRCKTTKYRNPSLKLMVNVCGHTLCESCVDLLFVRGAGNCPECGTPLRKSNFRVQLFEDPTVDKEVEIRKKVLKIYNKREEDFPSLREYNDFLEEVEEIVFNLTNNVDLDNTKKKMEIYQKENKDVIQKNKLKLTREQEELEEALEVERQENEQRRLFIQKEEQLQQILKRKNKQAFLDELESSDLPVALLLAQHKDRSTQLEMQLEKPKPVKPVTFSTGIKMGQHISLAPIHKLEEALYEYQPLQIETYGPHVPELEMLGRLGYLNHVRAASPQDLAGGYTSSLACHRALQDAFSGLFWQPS
Test [6] addresses T4, CDK6-CYCLIND3 (Homo sapiens, UniProt Q00534).
T4 construct: purchased Carna
As to conditions: read-out: CDK6 CyclinD3 IC50. On the procedure:
as §1, §2

T1 sequence (P50750 whole entry): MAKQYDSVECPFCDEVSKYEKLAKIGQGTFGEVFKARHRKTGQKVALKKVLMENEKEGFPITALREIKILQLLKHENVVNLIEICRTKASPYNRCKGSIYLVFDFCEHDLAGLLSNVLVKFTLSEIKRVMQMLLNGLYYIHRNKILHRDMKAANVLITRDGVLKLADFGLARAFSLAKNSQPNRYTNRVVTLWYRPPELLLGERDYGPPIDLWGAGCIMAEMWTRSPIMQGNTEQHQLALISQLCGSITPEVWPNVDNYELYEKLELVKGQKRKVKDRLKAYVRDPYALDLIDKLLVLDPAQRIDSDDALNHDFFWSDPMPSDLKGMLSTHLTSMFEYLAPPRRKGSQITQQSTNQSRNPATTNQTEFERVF
T1 sequence (O60563 whole entry partner): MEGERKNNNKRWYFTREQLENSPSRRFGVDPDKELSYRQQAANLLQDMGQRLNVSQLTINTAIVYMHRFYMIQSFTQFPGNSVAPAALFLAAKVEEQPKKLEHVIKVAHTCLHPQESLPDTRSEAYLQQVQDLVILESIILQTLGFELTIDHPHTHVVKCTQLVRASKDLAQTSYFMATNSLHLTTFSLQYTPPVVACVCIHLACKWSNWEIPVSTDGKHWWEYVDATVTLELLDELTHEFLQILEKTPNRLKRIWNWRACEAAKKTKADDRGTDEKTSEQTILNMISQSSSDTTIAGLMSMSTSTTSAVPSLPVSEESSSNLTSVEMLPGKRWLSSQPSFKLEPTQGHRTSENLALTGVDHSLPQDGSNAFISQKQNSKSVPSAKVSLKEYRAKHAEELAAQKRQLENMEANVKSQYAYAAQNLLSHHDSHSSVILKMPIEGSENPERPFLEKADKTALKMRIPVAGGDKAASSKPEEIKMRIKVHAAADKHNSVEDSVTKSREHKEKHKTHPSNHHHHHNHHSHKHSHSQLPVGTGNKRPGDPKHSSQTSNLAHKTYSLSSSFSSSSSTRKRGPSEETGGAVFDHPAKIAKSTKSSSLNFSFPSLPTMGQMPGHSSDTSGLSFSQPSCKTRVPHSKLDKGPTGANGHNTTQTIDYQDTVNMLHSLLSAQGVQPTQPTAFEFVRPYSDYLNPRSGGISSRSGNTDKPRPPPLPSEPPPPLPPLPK
CDK1/B, sequence (P06493 whole entry): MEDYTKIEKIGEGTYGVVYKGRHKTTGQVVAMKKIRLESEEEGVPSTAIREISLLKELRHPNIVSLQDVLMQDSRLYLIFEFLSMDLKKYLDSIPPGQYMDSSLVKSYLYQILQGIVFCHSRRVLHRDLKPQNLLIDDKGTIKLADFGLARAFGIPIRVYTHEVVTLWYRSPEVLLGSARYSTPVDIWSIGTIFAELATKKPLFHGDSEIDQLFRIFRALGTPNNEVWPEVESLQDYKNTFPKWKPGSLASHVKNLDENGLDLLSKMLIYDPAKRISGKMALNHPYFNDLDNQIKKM
CDK1/B, sequence (P14635 whole entry partner): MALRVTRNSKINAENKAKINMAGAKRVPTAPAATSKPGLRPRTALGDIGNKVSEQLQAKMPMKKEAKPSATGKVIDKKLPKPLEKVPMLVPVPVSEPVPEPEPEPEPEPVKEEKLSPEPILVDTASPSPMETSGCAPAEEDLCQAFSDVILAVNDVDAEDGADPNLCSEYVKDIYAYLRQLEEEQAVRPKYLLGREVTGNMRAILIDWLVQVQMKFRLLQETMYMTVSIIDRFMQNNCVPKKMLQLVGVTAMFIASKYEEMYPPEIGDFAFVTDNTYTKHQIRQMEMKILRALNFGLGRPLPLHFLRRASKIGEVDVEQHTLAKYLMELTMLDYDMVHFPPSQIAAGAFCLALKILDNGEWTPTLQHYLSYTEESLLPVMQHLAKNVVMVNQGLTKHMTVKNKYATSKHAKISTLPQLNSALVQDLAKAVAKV
T4 sequence (Q00534 whole entry): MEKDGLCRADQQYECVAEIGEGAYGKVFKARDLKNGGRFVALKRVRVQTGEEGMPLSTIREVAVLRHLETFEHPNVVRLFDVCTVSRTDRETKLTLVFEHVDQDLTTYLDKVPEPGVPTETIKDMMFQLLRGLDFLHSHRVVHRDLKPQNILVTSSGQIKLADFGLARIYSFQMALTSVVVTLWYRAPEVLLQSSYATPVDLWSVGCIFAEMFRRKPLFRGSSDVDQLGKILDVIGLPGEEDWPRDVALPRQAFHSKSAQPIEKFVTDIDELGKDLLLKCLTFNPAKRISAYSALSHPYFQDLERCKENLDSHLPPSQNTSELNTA
T4 sequence (P30281 whole entry partner): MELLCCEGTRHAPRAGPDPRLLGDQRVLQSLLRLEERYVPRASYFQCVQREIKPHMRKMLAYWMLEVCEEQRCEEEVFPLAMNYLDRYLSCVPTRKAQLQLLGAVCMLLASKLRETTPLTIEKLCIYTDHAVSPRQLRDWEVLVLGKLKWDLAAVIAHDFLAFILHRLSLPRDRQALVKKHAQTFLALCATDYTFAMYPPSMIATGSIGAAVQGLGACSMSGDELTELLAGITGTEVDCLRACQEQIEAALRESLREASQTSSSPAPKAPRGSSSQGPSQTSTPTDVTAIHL
T2 sequence (P11802 whole entry): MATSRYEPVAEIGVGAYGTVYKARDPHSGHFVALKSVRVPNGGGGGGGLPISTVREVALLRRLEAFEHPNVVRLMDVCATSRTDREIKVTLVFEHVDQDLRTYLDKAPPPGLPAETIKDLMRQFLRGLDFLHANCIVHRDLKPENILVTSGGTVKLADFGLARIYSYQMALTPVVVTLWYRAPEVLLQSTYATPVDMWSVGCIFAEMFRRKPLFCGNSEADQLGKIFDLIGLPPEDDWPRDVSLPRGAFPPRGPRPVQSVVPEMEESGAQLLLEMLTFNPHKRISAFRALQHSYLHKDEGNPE
T2 sequence (P24385 whole entry partner): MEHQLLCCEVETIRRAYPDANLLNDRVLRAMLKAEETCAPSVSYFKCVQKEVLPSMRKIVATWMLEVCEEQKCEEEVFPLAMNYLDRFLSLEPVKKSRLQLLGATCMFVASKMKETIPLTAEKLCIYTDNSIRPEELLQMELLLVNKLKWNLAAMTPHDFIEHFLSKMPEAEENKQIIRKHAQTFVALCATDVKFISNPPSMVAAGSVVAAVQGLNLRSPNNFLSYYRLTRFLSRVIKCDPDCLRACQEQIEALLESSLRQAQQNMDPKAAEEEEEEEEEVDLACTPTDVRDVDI

What is called IC50 is the concentration needed to halve the response being measured. On to `CC(C)N1CCN(c2ccc(Nc3ncc4cc(C(=O)N(C)C)n(C56CC(C5)C6)c4n3)cc2)CC1` (single isomer, unassigned) [Compound A89, 7-(bicyclo[1.1.1]pentan-1-yl)-2-((4-(4-isopropylpiperazin-1-yl)phenyl)amino)-N,N-dimethyl-7H-pyrrolo[2,3-d]pyrimidine-6-carboxamide], for which the IC50 in test [1] is 0.44 µM; in test [2] (Table 3a) it was 0.00406 µM; in test [3] (Table 3a), less than 0.0032 µM; in test [3] (Table 3b) it was less than 0.0032 µM; in test [4] (Table 3a), 0.4 µM; in test [4] (Table 3b) it was 0.4 µM. Further, the IC50 in test [5] (Table 3a) and in test [5] (Table 3b) was 1.52 µM throughout.

Regarding `CN1CCC(c2ccc(Nc3ncc4cc(C(=O)N(C)C)n(C56CC(C5)C6)c4n3)cc2)CC1` [Compound A51, 7-(bicyclo[1.1.1]pentan-1-yl)-N,N-dimethyl-2-((4-(1-methylpiperidin-4-yl)phenyl)amino)-7H-pyrrolo[2,3-d]pyrimidine-6-carboxamide], the IC50 in test [1] came out at 0.453 µM; in test [2] (Table 3a), 0.00546 µM; in test [3] (Table 3a), 0.00452 µM; in test [3] (Table 3b) it was 0.00452 µM; in test [4] (Table 3a) it was 0.66 µM; in test [4] (Table 3b), 0.66 µM. For the same compound, the IC50 in test [5] (Table 3a) and in test [5] (Table 3b) was 2.06 µM each time.

`CN(C)CCOc1ccc(Nc2ncc3cc(C(=O)N(C)C)n(C45CC(C4)C5)c3n2)cc1` [Compound A60, 7-(bicyclo[1.1.1]pentan-1-yl)-2-((4-(2-(dimethylamino)ethoxy)phenyl)amino)-N,N-dimethyl-7H-pyrrolo[2,3-d]pyrimidine-6-carboxamide]: the IC50 in test [1] was 0.955 µM; in test [2] (Table 3a), less than 0.0032 µM; in test [2] (Table 3b), less than 0.0032 µM; in test [3] (Table 3a), 0.0079 µM; in test [3] (Table 3b), 0.0079 µM; in test [4] (Table 3a) it was 0.8 µM. Moreover, the IC50 was 0.8 µM in test [4] (Table 3b), 3.42 µM in test [5] (Table 3a) and 3.42 µM in test [5] (Table 3b).

As to `CN1CCN(C2CCN(c3ccc(Nc4ncc5cc(C(=O)N(C)C)n(C67CC(C6)C7)c5n4)cc3F)CC2)CC1` [Compound A68, 7-(bicyclo[1.1.1]pentan-1-yl)-2-((3-fluoro-4-(4-(4-methylpiperazin-1-yl)piperidin-1-yl)phenyl)amino)-N,N-dimethyl-7H-pyrrolo[2,3-d]pyrimidine-6-carboxamide], the 50% inhibitory concentration (IC50) in test [1] stood at 0.562 µM; in test [4] (Table 3a), 0.632 µM; in test [4] (Table 3b), 0.632 µM; in test [5] (Table 3a), 2.68 µM; in test [5] (Table 3b), 2.68 µM.

Take `CN(C)C(=O)c1cc2cnc(Nc3ccc(N4CCNCC4)cn3)nc2n1C12CC(C1)C2` [Compound A86, 7-(bicyclo[1.1.1]pentan-1-yl)-N,N-dimethyl-2-((5-(piperazin-1-yl)pyridin-2-yl)amino)-7H-pyrrolo[2,3-d]pyrimidine-6-carboxamide]: the IC50 in test [6] (Table 3a) stood at 0.0201 µM; in test [6] (Table 3b) it was 0.0201 µM; in test [2] (Table 3a) it was 0.67 µM; in test [3] (Table 3a), 0.016 µM; in test [3] (Table 3b) it was 0.016 µM; in test [4] (Table 3a), 18.9 µM. The figures for the IC50 in test [4] (Table 3b), in test [5] (Table 3a) and in test [5] (Table 3b) were 18.9 µM, 27.4 µM and 27.4 µM, respectively.

As to `CN(C)C(=O)c1cc2cnc(Nc3ccc(C4=CCNCC4)cn3)nc2n1C12CC(C1)C2` [Compound A87, 7-(bicyclo[1.1.1]pentan-1-yl)-N,N-dimethyl-2-((1′,2′,3′,6′-tetrahydro-[3,4′-bipyridin]-6-yl)amino)-7H-pyrrolo[2,3-d]pyrimidine-6-carboxamide], the IC50 turned out to be 0.02 µM in test [6] (Table 3a); 0.02 µM in test [6] (Table 3b); 0.553 µM in test [2] (Table 3a); 0.0252 µM in test [3] (Table 3a); 0.0252 µM in test [3] (Table 3b); 50 µM in test [4] (Table 3a). The figures for the IC50 in test [4] (Table 3b), in test [5] (Table 3a) and in test [5] (Table 3b) were 50 µM, greater than 100 µM and greater than 100 µM, respectively.

The record behind these values is patent US20220056037A1 (SPV THERAPEUTICS INC., priority 2018, published 2022).
